The results in this text go back to PubChem BioAssay AID720609 (Broad Institute, 2013).

The experiment concerns HeLa viability, CellTiter-Glo ATP luminescence, 8-48 h. The experiment can be described thus: HeLa cell viability over time, late-stage follow-up, mechanism study for HRAS target identification, CellTiter-Glo ATP luminescence, 8-48 h, dry powder (AID 720609).

The term AC50 denotes the midpoint of the concentration-response curve, whichever way the signal moves. Low readings indicate activity at low concentration, high ones activity only at high concentration. As for `COC(=O)c1ccc([C@@H]2c3[nH]c4ccccc4c3C[C@@H](C(=O)OC)N2C(=O)CCl)cc1`, the AC50 reads like this: (measured here: AC50 at 8 h) 512 nM; (measured here: AC50 at 24 h) 609 nM; (measured here: AC50 at 48 h) 602 nM.
Take `C#CCCCC(=O)NCCOCCOCCOc1ccc(N(C(=O)CCl)C(C(=O)NCCc2ccccc2)c2cccs2)cc1Cl` (stereo not drawn): the AC50 reads like this: (measured here: AC50 at 8 h) 6100 nM; (measured here: AC50 at 24 h) 3100 nM; (measured here: AC50 at 48 h) 4790 nM.
As for `COc1ccc(N(C(=O)CCl)C(C(=O)NCCc2ccccc2)c2cccs2)cc1Cl` (stereo not drawn), the AC50 runs as follows: (measured here: AC50 at 8 h) 725 nM; (measured here: AC50 at 24 h) 323 nM; (measured here: AC50 at 48 h) 699 nM.
As for `CCC(=O)N(c1ccc(OC)c(Cl)c1)C(C(=O)NCCc1ccccc1)c1cccs1` (stereo not drawn), the AC50 (measured here: AC50 at 24 h) is greater than 70000 nM.
In the case of `CC(C)(C)OC(=O)NCCOCCOCCOc1ccc(N(C(=O)CCl)C(C(=O)NCCc2ccccc2)c2cccs2)cc1Cl` (stereo not drawn), the AC50 is 515 nM (measured here: AC50 at 8 h), 564 nM (measured here: AC50 at 24 h) and 946 nM (measured here: AC50 at 48 h).
